Test [1] has as its target JAK2 (recombinant purified GST-tagged catalytic domain) (Homo sapiens (Human), UniProt O60674). The experiment in a line: biochemical.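 Further: biochemical JAK kinase assay with HTRF detection.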
Test [2] concerns the target JAK1 (recombinant purified GST-tagged catalytic domain) (Homo sapiens (Human), UniProt P23458). Description: biochemical.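 Further: biochemical assay with HTRF read-out.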

Bounds are passed on as bounds.

Chain of JAK2 (recombinant purified GST-tagged catalytic domain) (O60674 849-1124): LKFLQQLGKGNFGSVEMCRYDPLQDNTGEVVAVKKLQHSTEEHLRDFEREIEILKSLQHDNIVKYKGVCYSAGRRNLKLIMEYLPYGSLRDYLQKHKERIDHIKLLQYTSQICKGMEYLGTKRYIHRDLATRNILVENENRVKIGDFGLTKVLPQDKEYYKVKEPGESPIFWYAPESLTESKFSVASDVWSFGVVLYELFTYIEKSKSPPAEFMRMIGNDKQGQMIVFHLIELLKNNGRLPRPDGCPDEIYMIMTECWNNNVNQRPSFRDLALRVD
Chain of JAK1 (recombinant purified GST-tagged catalytic domain) (P23458 875-1153): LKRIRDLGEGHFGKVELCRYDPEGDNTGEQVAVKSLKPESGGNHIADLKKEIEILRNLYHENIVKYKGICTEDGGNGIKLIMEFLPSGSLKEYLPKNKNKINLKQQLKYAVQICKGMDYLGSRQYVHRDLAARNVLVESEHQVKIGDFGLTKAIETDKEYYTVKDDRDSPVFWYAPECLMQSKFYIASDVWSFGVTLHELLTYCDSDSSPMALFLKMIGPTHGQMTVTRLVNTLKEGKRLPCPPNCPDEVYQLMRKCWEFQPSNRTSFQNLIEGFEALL

Take `CC(C)(O)CN[C@H]1CCC(n2cc(C(N)=O)c(Nc3ccc(Cl)cc3)n2)[C@@H](C#N)C1` (single isomer, unassigned) [Example 28-221, 3-[(4-chlorophenyl)amino]-1-{(1S,2S,4S or 1R,2R,4R)-2-cyano-4-[(2-hydroxy-2-methylpropyl)amino]cyclo-hexyl}-1H-pyrazole-4-carboxamide]: the figures for the IC50 in test [1] and in test [2] were 42 nM and 2 nM, respectively.

In the case of `N#C[C@H]1C[C@@H](NC2(CO)CC2)CCC1n1cc(C(N)=O)c(Nc2ccc(Cl)cc2)n1` (single isomer, unassigned) [Example 28-223, 3-[(4-chlorophenyl)amino]-1-[(1S,2S,4S or 1R,2R,4R)-2-cyano-4-{[1-(hydroxymethyl)cyclopropyl]a-mino}cyclohexyl]-1H-pyrazole-4-carboxamide], the half-maximal inhibitory concentration (IC50) in test [1] came to 14 nM; in test [2] it was 2 nM.

For `N#C[C@H]1C[C@@H](NC2(C(F)(F)F)CC2)CC[C@@H]1n1cc(C(N)=O)c(Nc2ccc(Cl)cc2)n1` (single isomer, unassigned) [Example 28-226, 3-[(4-chlorophenyl)amino]-1-[(1S,2S,4S or 1R,2R,4R)-2-cyano-4-{[1-(trifluoro-methyl)cyclopropyl]a-mino}cyclohexyl]-1H-pyrazole-4-carboxamide], the IC50 in test [1] was determined as 36 nM; in test [2], 5 nM.

Take `N#C[C@H]1C[C@H](NC2(C(F)(F)F)CC2)CC[C@@H]1n1cc(C(N)=O)c(Nc2ccc(Cl)cc2)n1` (single isomer, unassigned) [Example 28-227, 3-[(4-chlorophenyl)amino]-1-[(1S,2S,4R or 1R,2R,4S)-2-cyano-4-{[1-(trifluoro-methyl)cyclopropyl]a-mino}cyclohexyl]-1H-pyrazole-4-carboxamide]: the results for the IC50 in test [1] and in test [2] were 186 nM and 27 nM, respectively.

Take `COC(C)(C)CN[C@H]1CCC(n2cc(C(N)=O)c(Nc3ccc(Cl)cc3)n2)[C@@H](C#N)C1` (single isomer, unassigned) [Example 28-228, 3-[(4-chlorophenyl)amino]-1-{(1S,2S,4S or 1R,2R,4R)-2-cyano-4-[(2-methoxy-2-methylpropyl)amino]cyclo-hexyl}-1H-pyrazole-4-carboxamide]: the results for the IC50 in test [1] and in test [2] were 48 nM and 2 nM, respectively.

For the molecule `CC1(N[C@H]2CCC(n3cc(C(N)=O)c(Nc4ccccc4)n3)[C@@H](C#N)C2)COC1` (single isomer, unassigned) [Example 28-230, 1-{(1S,2S,4S or 1R,2R,4R)-2-cyano-4-[(3-methyloxetan-3-yl)amino]cyclohexyl}-3-(phenylamino)-1H-pyrazole-4-carboxamide], the half-inhibitory concentration (IC50) is 24 nM in test [1] and 4 nM in test [2].

As for `COCCN[C@H]1CCC(n2cc(C(N)=O)c(Nc3ccc(Cl)cc3)n2)[C@@H](C#N)C1` (single isomer, unassigned) [Example 28-236, 3-[(4-chlorophenyl)amino]-1-{(1S,2S,4S or 1R,2R,4R)-2-cyano-4-[(2-methoxyethyl)amino]cyclo-hexyl}-1H-pyrazole-4-carboxamide], the IC50 in test [1] was determined as 23 nM; in test [2], 0.9 nM.

For `COCCN(C)[C@H]1CCC(n2cc(C(N)=O)c(Nc3ccc(Cl)cc3)n2)[C@@H](C#N)C1` (single isomer, unassigned) [Example 28-239, 3-[(4-chlorophenyl)amino]-1-{(1S,2S,4S or 1R,2R,4R)-2-cyano-4-[(2-methoxy-ethyl)(methyl)amino]cyclo-hexyl}-1H-pyrazole-4-carboxamide], the values for the IC50 in test [1] and in test [2] were 20 nM and 2 nM, respectively.

As for `COCC(C)N(C)[C@H]1CCC(n2cc(C(N)=O)c(Nc3ccc(Cl)cc3)n2)[C@@H](C#N)C1` (single isomer, unassigned) [Example 28-240, 3-[(4-chlorophenyl)amino]-1-[(1S,2S,4S or 1R,2R,4R)-2-cyano-4-{[(1S or 1R)-2-methoxy-1-methylethyl](methyl)ami-no}cyclohexyl]-1H-pyrazole-4-carboxamide], the half-inhibitory concentration (IC50) in test [1] is 27 nM; in test [2], 2 nM.

Consider `CN(C1COC1)[C@H]1CC[C@@H](n2cc(C(N)=O)c(Nc3ccc(C(F)(F)F)cc3)n2)[C@H](C#N)C1` (single isomer, unassigned) [Example 30-1, 1-{(1R,2R,4S or 1S,2S,4R)-2-Cyano-4-[methyl(oxetan-3-yl)amino]cyclohexyl}-3-{[4-(trifluoromethyl)phenyl]amino}-1H-pyrazole-4-carboxamide], for which the 50% inhibitory concentration (IC50) in test [1] was determined as 106 nM; in test [2], 9 nM.

Consider `N#C[C@@H]1C[C@@H](NC2CC3(CCCC3)C2)CC[C@H]1n1cc(C(N)=O)c(Nc2ccc(C(F)(F)F)cc2)n1` (single isomer, unassigned) [Example 30-5, 1-[(1R,2R,4S or 1S,2S,4R)-2-cyano-4-(spiro[3.4]oct-2-ylamino)cyclohexyl]-3-{[4-(trifluoromethyl)phenyl]amino}-1H-pyrazole-4-carboxamide], for which the values for the 50% inhibitory concentration (IC50) in test [1] and in test [2] were 665 nM and 21 nM, respectively.

As to `CN(C1CCC1)[C@H]1CC[C@@H](n2cc(C(N)=O)c(Nc3ccc(C(F)(F)F)cc3)n2)[C@H](C#N)C1` (single isomer, unassigned) [Example 30-8, l-{(1R,2R,4S or 1S,2S,4R)-2-cyano-4-[cyclo-butyl(methyl)amino]cyclohexyl}-3-{[4-(trifluoro-methyl)phenyl]amino}-1H-pyrazole-4-carboxamide], the figures for the IC50 in test [1] and in test [2] were 240 nM and 6 nM, respectively.

In the case of `N#C[C@H]1C[C@H](NC2CCC2)CC[C@@H]1n1cc(C(N)=O)c(Nc2ccc(C(F)(F)F)cc2)n1` (single isomer, unassigned) [Example 30-14, 1-[(1S,2S,4R or 1R,2R,4S)-2-cyano-4-(cyclobutylamino)cyclohexyl]-3-{[4-(trifluoro-methyl)phenyl]amino}-1H-pyrazole-4-carboxamide], the half-maximal inhibitory concentration (IC50) was 1050 nM in test [1] and 51 nM in test [2].

`N#C[C@H]1C[C@H](N(CC2CC2)CC2CC2)CC[C@@H]1n1cc(C(N)=O)c(Nc2ccc(C(F)(F)F)cc2)n1` (single isomer, unassigned) [Example 30-15, l-{(1S,2S,4R or 1R,2R,4S)-4-[bis(cyclopropylmethyl)amino]-2-cyanocyclohexyl}-3-{[4-(trifluoromethyl)phenyl]amino}-1H-pyrazole-4-carboxamide]: the half-maximal inhibitory concentration (IC50) in test [1] is greater than 1500 nM; in test [2], 260 nM.

Regarding `N#C[C@@H]1C[C@@H](NCC2CCC2)CC[C@H]1n1cc(C(N)=O)c(Nc2ccc(C(F)(F)F)cc2)n1` (single isomer, unassigned) [Example 30-16, 1-{(1R,2R,4S or 1S,2S,4R)-2-cyano-4-[(cyclobutyl-methyl)amino]cyclohexyl}-3-{[4-(trifluoro-methyl)phenyl]amino}-1H-pyrazole-4-carboxamide], the half-maximal inhibitory concentration (IC50) in test [1] was 242 nM; in test [2], 2 nM.

For the molecule `N#C[C@@H]1C[C@@H](NC2COC2)CC[C@H]1n1cc(C(N)=O)c(Nc2ccc(C(F)(F)F)cc2)n1` (single isomer, unassigned) [Example 30-17, 1-[(1R,2R,4S or 1S,2S,4R)-2-cyano-4-(oxetan-3-ylamino)cyclohexyl]-3-{[4-(trifluoromethyl)phenyl]amino}-1H-pyrazole-4-carboxamide], the IC50 in test [1] worked out at 17 nM; in test [2] it was 0.85 nM.

As for `N#C[C@@H]1C[C@@H](NC2CCC2)CC[C@H]1n1cc(C(N)=O)c(Nc2ccc(C(F)(F)F)cc2)n1` (single isomer, unassigned) [Example 30-18, 1-[(1R,2R,4S or 1S,2S,4R)-2-cyano-4-(cyclobutyl-amino)cyclohexyl]-3-{[4-(trifluoromethyl)phenyl]amino}-1H-pyrazole-4-carboxamide], the 50% inhibitory concentration (IC50) came out at 136 nM in test [1] and 2 nM in test [2].

In the case of `C[N+]1([C@H]2CC[C@H](n3cc(C(N)=O)c(Nc4ccc(C(F)(F)F)cc4)n3)[C@@H](C#N)C2)CCC1` (single isomer, unassigned) [Example 31-1, 1-((1S,3S,4S or 1R,3R,4R)-4-(4-carbamoyl-3-((4-(trifluoromethyl)phenyl)amino)-1H-pyrazol-1-yl)-3-cyanocyclohexyl)-1-methylazetidin-1-ium 2,2,2-trifluoroacetate], the IC50 was 33 nM in test [1] and 0.3 nM in test [2].

On to `N#C[C@H]1C[C@@](O)(C2CC2)CC[C@@H]1n1cc(C(N)=O)c(Nc2ccc(Cl)c(F)c2)n1` (single isomer, unassigned) [Example 32-1, 3-[(4-Chloro-3-fluorophenyl)amino]-1-[(1S,2S,4S or 1R,2R,4R)-2-cyano-4-cyclopropyl-4-hydroxycyclohexyl]-1H-pyrazole-4-carboxamide], for which the results for the half-maximal inhibitory concentration (IC50) in test [1] and in test [2] were 59 nM and 13 nM, respectively.

As to `N#C[C@H]1C[C@@H](O)CC[C@@H]1n1cc(C(N)=O)c(Nc2ccc(OC(F)(F)F)cc2)n1` (single isomer, unassigned) [Example 33-1, 1-((1S,2S,4S or 1R,2R,4R)-2-Cyano-4-hydroxycyclohexyl)-3-((4-(trifluoromethoxy)phenyl)amino)-1H-pyrazole-4-carboxamide], the concentration for half-maximal inhibition (IC50) in test [1] amounted to 5 nM; in test [2] it was 0.5 nM.

On to `N#C[C@H]1C[C@@H](O)CC[C@@H]1n1cc(C(N)=O)c(Nc2ccc(C(F)(F)F)cc2)n1` (single isomer, unassigned) [Example 33-4, 1-[(1S,2S,4S or 1R,2R,4R)-2-cyano-4-hydroxycyclohexyl]-3-{[4-(trifluoromethyl)phenyl]amino}-1H-pyrazole-4-carboxamide], for which the concentration for half-maximal inhibition (IC50) in test [1] came to 90 nM; in test [2] it was 5 nM.

Consider `N#Cc1ccc(Nc2nn([C@H]3CC[C@H](O)C[C@@H]3C#N)cc2C(N)=O)cc1` (single isomer, unassigned) [Example 33-6, 1-[(1S,2S,4S or 1R,2R,4R)-2-cyano-4-hydroxycyclohexyl]-3-[(4-cyanophenyl)amino]-1H-pyrazole-4-carboxamide], for which the figures for the IC50 in test [1] and in test [2] were 3 nM and 0.5 nM, respectively.

The values above are taken from patent US8962608B2, “Cycloalkylnitrile pyrazole carboxamides as janus kinase inhibitors” (Merck Sharp & Dohme Corp., priority 2011, dated 2015).
